# Experiments:
# GST-Bcl-2 = GST-Bcl-2 (Homo sapiens, UniProt P10415); assay: TR-FRET binding assay, GST-Bcl-2 with F-Bak peptide probe; details: for Ki: TR-FRET Binding Affinity; for Binding selectivity ratio (Bcl-XL Ki/Bcl-2 Ki): TR-FRET, Bcl-XL Ki divided by Bcl-2 Ki
# Summary of the method: (§1)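 Compounds were serially diluted in DMSO from a 50 μM starting solution (2× the starting concentration; 10% DMSO). Plates were incubated for 3 h at room temperature, and TR-FRET was read with 340/35 nm excitation and emission at 520/525 nm (F-Bak) and 495/510 nm (Tb antibody). Ki values were calculated using Wang's competitive-binding equation.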
# GST-Bcl-XL = GST-Bcl-XL (Homo sapiens, UniProt Q07817); assay: TR-FRET binding assay, GST-Bcl-XL with F-Bak peptide probe; details: TR-FRET Binding Affinity
# Summary of the method: as §1
# Sequence of GST-Bcl-2 (P10415 whole entry): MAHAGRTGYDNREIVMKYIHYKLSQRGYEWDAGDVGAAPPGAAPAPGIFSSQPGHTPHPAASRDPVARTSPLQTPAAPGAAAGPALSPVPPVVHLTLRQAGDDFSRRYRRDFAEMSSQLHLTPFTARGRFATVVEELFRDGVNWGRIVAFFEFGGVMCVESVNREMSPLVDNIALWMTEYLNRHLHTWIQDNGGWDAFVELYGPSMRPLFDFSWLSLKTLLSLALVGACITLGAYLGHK
# Sequence of GST-Bcl-XL (Q07817 whole entry): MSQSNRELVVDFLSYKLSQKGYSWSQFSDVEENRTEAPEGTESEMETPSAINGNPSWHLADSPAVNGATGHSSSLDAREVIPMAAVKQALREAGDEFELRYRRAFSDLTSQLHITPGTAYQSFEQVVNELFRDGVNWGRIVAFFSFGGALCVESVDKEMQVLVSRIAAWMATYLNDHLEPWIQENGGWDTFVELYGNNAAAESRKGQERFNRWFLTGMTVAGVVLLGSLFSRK
SMILES,Ki (GST-Bcl-2),Binding selectivity ratio (Bcl-XL Ki/Bcl-2 Ki) (GST-Bcl-2),Ki (GST-Bcl-XL)
"CC1(C)CC(c2ccc(Cl)cc2)=C(CN2CCN(c3ccc(C(=O)NS(=O)(=O)c4ccc(OCC5(F)CCOCC5)c(Cl)c4)c(Oc4cccc5[nH]ncc45)c3)CC2)CO1 [Example 496, N-({3-chloro-4-[(4-fluorotetrahydro-2H-pyran-4-yl)methoxy]phenyl}sulfonyl)-4-(4-{[4-(4-chlorophenyl)-6,6-dimethyl-5,6-dihydro-2H-pyran-3-yl]methyl}piperazin-1-yl)-2-(1H-indazol-4-yloxy)benzamide]",0.078 nM,558.9,43.3 nM
"CC1(C)CCC(CN2CCN(c3ccc(C(=O)NS(=O)(=O)c4ccc(OCC5(F)CCOCC5)c(C(F)(F)F)c4)c(Oc4cccc5[nH]ncc45)c3)CC2)=C(c2ccc(Cl)cc2)C1 [Example 497, 4-(4-{[2-(4-chlorophenyl)-4,4-dimethylcyclohex-1-en-1-yl]methyl}piperazin-1-yl)-N-({4-[(4-fluorotetrahydro-2H-pyran-4-yl)methoxy]-3-(trifluoromethyl)phenyl}sulfonyl)-2-(1H-indazol-4-yloxy)benzamide]",0.082 nM,1517.4,124 nM
"CC1(C)CCC(CN2CCN(c3ccc(C(=O)NS(=O)(=O)c4ccc(OCC5CCOCC5)c(Cl)c4)c(Oc4cccc5[nH]ncc45)c3)CC2)=C(c2ccc(Cl)cc2)C1 [Example 498, 4-(4-{[2-(4-chlorophenyl)-4,4-dimethylcyclohex-1-en-1-yl]methyl}piperazin-1-yl)-N-{[3-chloro-4-(tetrahydro-2H-pyran-4-ylmethoxy)phenyl]sulfonyl}-2-(1H-indazol-4-yloxy)benzamide]",< 0.01 nM,>12491.0,125 nM
"CC1(C)CCC(CN2CCN(c3ccc(C(=O)NS(=O)(=O)c4ccc(OCC5(F)CCOCC5)c(Cl)c4)c(Oc4cccc5[nH]cnc45)c3)CC2)=C(c2ccc(Cl)cc2)C1 [Example 499, 2-(1H-benzimidazol-4-yloxy)-N-({3-chloro-4-[(4-fluorotetrahydro-2H-pyran-4-yl)methoxy]phenyl}sulfonyl)-4-(4-{[2-(4-chlorophenyl)-4,4-dimethylcyclohex-1-en-1-yl]methyl}piperazin-1-yl)benzamide]",< 0.01 nM,>10415.0,104 nM
"CC1(C)CCC(CN2CCN(c3ccc(C(=O)NS(=O)(=O)c4cnc(OCC5CCOCC5)c(Cl)c4)c(Oc4cccc5[nH]cnc45)c3)CC2)=C(c2ccc(Cl)cc2)C1 [Example 500, 2-(1H-benzimidazol-4-yloxy)-4-(4-{[2-(4-chlorophenyl)-4,4-dimethylcyclohex-1-en-1-yl]methyl}piperazin-1-yl)-N-{[5-chloro-6-(tetrahydro-2H-pyran-4-ylmethoxy)pyridin-3-yl]sulfonyl}benzamide]",< 0.01 nM,>14734.0,147 nM
"CC1(C)CCC(CN2CCN(c3ccc(C(=O)NS(=O)(=O)c4ccc(OCC5(F)CCOCC5)c(C#N)c4)c(Oc4cccc5[nH]ncc45)c3)CC2)=C(c2ccc(Cl)cc2)C1 [Example 501, 4-(4-{[2-(4-chlorophenyl)-4,4-dimethylcyclohex-1-en-1-yl]methyl}piperazin-1-yl)-N-({3-cyano-4-[(4-fluorotetrahydro-2H-pyran-4-yl)methoxy]phenyl}sulfonyl)-2-(1H-indazol-4-yloxy)benzamide]",0.027 nM,6025.7,163 nM
"CC1(C)CCC(CN2CCN(c3ccc(C(=O)NS(=O)(=O)c4ccc(OCC5COCCO5)c(Cl)c4)c(Oc4cccc5[nH]ncc45)c3)CC2)=C(c2ccc(Cl)cc2)C1 (stereo not drawn) [Example 502, N-{[3-chloro-4-(1,4-dioxan-2-ylmethoxy)phenyl]sulfonyl}-4-(4-{[2-(4-chlorophenyl)-4,4-dimethylcyclohex-1-en-1-yl]methyl}piperazin-1-yl)-2-(1H-indazol-4-yloxy)benzamide]",0.025 nM,5754.1,145 nM
"CC1(C)CCC(CN2CCN(c3ccc(C(=O)NS(=O)(=O)c4cnc(OC[C@@H]5CN(C6CC6)CCO5)c(Cl)c4)c(Oc4cccc5[nH]cnc45)c3)CC2)=C(c2ccc(Cl)cc2)C1 [Example 503, 2-(1H-benzimidazol-4-yloxy)-N-[(5-chloro-6-{[(2S)-4-cyclopropylmorpholin-2-yl]methoxy}pyridin-3-yl)sulfonyl]-4-(4-{[2-(4-chlorophenyl)-4,4-dimethylcyclohex-1-en-1-yl]methyl}piperazin-1-yl)benzamide]",0.062 nM,2356.5,147 nM
"CC1(C)CCC(CN2CCN(c3ccc(C(=O)NS(=O)(=O)c4cnc(OC[C@@H]5CN(C6CC6)CCO5)c(Cl)c4)c(Oc4cccc5[nH]ncc45)c3)CC2)=C(c2ccc(Cl)cc2)C1 [Example 504, N-[(5-chloro-6-{[(2S)-4-cyclopropylmorpholin-2-yl]methoxy}pyridin-3-yl)sulfonyl]-4-(4-{[2-(4-chlorophenyl)-4,4-dimethylcyclohex-1-en-1-yl]methyl}piperazin-1-yl)-2-(1H-indazol-4-yloxy)benzamide]",< 0.01 nM,>549.9,5.5 nM
"COC(=O)N1CCOC(CNc2ccc(S(=O)(=O)NC(=O)c3ccc(N4CCN(CC5=C(c6ccc(Cl)cc6)CC(C)(C)CC5)CC4)cc3Oc3cccc4[nH]ncc34)cc2[N+](=O)[O-])C1 (stereo not drawn) [Example 505, methyl 2-{[(4-{[4-(4-{[2-(4-chlorophenyl)-4,4-dimethylcyclohex-1-en-1-yl]methyl}piperazin-1-yl)-2-(1H-indazol-4-yloxy)benzoyl]sulfamoyl}-2-nitrophenyl)amino]methyl}morpholine-4-carboxylate]",< 0.01 nM,>486.1,4.86 nM
"CCN(C)C(=O)N1CCOC(CNc2ccc(S(=O)(=O)NC(=O)c3ccc(N4CCN(CC5=C(c6ccc(Cl)cc6)CC(C)(C)CC5)CC4)cc3Oc3cccc4[nH]ncc34)cc2[N+](=O)[O-])C1 (stereo not drawn) [Example 506, 2-{[(4-{[4-(4-{[2-(4-chlorophenyl)-4,4-dimethylcyclohex-1-en-1-yl]methyl}piperazin-1-yl)-2-(1H-indazol-4-yloxy)benzoyl]sulfamoyl}-2-nitrophenyl)amino]methyl}-N-ethyl-N-methylmorpholine-4-carboxamide]",< 0.01 nM,>445.7,4.46 nM
"CCN(C)C(=O)N1CCOC(CNc2ccc(S(=O)(=O)NC(=O)c3ccc(N4CCN(CC5=C(c6ccc(Cl)cc6)CC(C)(C)CC5)CC4)cc3Oc3cccc4[nH]cnc34)cc2[N+](=O)[O-])C1 (stereo not drawn) [Example 507, 2-{[(4-{[2-(1H-benzimidazol-4-yloxy)-4-(4-{[2-(4-chlorophenyl)-4,4-dimethylcyclohex-1-en-1-yl]methyl}piperazin-1-yl)benzoyl]sulfamoyl}-2-nitrophenyl)amino]methyl}-N-ethyl-N-methylmorpholine-4-carboxamide]",< 0.01 nM,>3334.7,33.3 nM
"CC[C@]1(O)CC[C@H](COc2ncc(S(=O)(=O)NC(=O)c3ccc(N4CCN(CC5=C(c6ccc(Cl)cc6)CC(C)(C)CC5)CC4)cc3Oc3cccc4[nH]ncc34)cc2Cl)CC1 [Example 508, N-({5-chloro-6-[(trans-4-ethyl-4-hydroxycyclohexyl)methoxy]pyridin-3-yl}sulfonyl)-4-(4-{[2-(4-chlorophenyl)-4,4-dimethylcyclohex-1-en-1-yl]methyl}piperazin-1-yl)-2-(1H-indazol-4-yloxy)benzamide]",< 0.01 nM,>4315.2,43.2 nM
"CC[C@]1(O)CC[C@@H](COc2ncc(S(=O)(=O)NC(=O)c3ccc(N4CCN(CC5=C(c6ccc(Cl)cc6)CC(C)(C)CC5)CC4)cc3Oc3cccc4[nH]ncc34)cc2Cl)CC1 [Example 509, N-({5-chloro-6-[(cis-4-ethyl-4-hydroxycyclohexyl)methoxy]pyridin-3-yl}sulfonyl)-4-(4-{[2-(4-chlorophenyl)-4,4-dimethylcyclohex-1-en-1-yl]methyl}piperazin-1-yl)-2-(1H-indazol-4-yloxy)benzamide]",6.3 nM,36.4,229 nM
"CC1(C)CCC(CN2CCN(c3cc(Oc4cccc5[nH]ncc45)c(C(=O)NS(=O)(=O)c4cnc(OCC5(F)CCOCC5)c(Cl)c4)cc3Cl)CC2)=C(c2ccc(Cl)cc2)C1 [Example 510, 5-chloro-N-({5-chloro-6-[(4-fluorotetrahydro-2H-pyran-4-yl)methoxy]pyridin-3-yl}sulfonyl)-4-(4-{[2-(4-chlorophenyl)-4,4-dimethylcyclohex-1-en-1-yl]methyl}piperazin-1-yl)-2-(1H-indazol-4-yloxy)benzamide]",0.674 nM,257.8,174 nM
"CC1(C)CCC(CN2CCN(c3cc(Oc4cccc5[nH]ncc45)c(C(=O)NS(=O)(=O)c4ccc(NCC5(F)CCOCC5)c([N+](=O)[O-])c4)cc3Cl)CC2)=C(c2ccc(Cl)cc2)C1 [Example 511, 5-chloro-4-(4-{[2-(4-chlorophenyl)-4,4-dimethylcyclohex-1-en-1-yl]methyl}piperazin-1-yl)-N-[(4-{[(4-fluorotetrahydro-2H-pyran-4-yl)methyl]amino}-3-nitrophenyl)sulfonyl]-2-(1H-indazol-4-yloxy)benzamide]",< 0.01 nM,>2159.2,21.6 nM
"CC1(C)CCC(CN2CCN(c3ccc(C(=O)NS(=O)(=O)c4cnc(OCC5(F)CCC(C)(O)CC5)c(Cl)c4)c(Oc4cccc5[nH]ncc45)c3)CC2)=C(c2ccc(Cl)cc2)C1 (stereo not drawn) [Example 512, N-({5-chloro-6-[(cis-1-fluoro-4-hydroxy-4-methylcyclohexyl)methoxy]pyridin-3-yl}sulfonyl)-4-(4-{[2-(4-chlorophenyl)-4,4-dimethylcyclohex-1-en-1-yl]methyl}piperazin-1-yl)-2-(1H-indazol-4-yloxy)benzamide]",< 0.01 nM,>1733.8,17.3 nM

# Source: patent US9073855B2, “BCL-2 selective apoptosis-inducing agents for the treatment of cancer and immune diseases” (AbbVie Inc., priority 2008, dated 2015)
